Assay: Release from two-component films with barrier layers
Assay type: physicochemical
Text: In one exemplary embodiment, a range of strategies were employed to control the relative positions of multiple, labeled species within a single film by constructing physical barriers to separate the two components. In one embodiment, films were constructed containing 20-40 base layers of polymer 1/HEP, followed by a set of “barrier” layers including polymer 1/SPS (degradable), PDAC/SPS (non-degradable), thermally cross-linked PAH/PAA, or nothing at all, followed by 20-40 surface layers of polymer 1/DS (FIG. 18). A similar set of films was also constructed, but with the order of the labeled components reversed (e.g., DS base layers and HEP surface layers).
Thus, the use of a single covalently cross-linked PAH/PAA layer was sufficient to separate the two components when deposited onto the surface of the linearly growing polymer 1/DS system, as evidenced by the two-stage release profile. Following a delay of approximately 25 h, the underlying DS was released with a linear profile.
FIG. 27A illustrates the effect of barrier layers on the average release rate from the exemplary two-component systems described above. It is apparent that the average release rate (taken as the average slope of the initial, linear portion of the release curve) of systems including of an underlying layer of linearly-growing DS can be broadly controlled using both multiple layers of a nondegradable system PDAC/SPS or as little as a single layer of cross-linked PAH/PAA. Further, by tuning any of the parameters affecting the degree of cross-linking (e.g., cross-linking time, temperature, number of cross-linked layers), the release rate can be dramatically altered. […] Thus, milder cross-linking conditions (e.g., lower temperatures) may allow for a greater degree of flexibility in tailoring release profiles. Further, aqueous, chemical cross-linking techniques using common biochemical reagents such as carbodiimides may represent a suitable alternative to thermal cross-linking when low temperature fabrication is required. Nevertheless, one skilled in the art will recognize that a range of approaches may be employed to control the release of underlying species, particularly when the underlying species lacks the ability to diffuse throughout the film.
General Considerations. A Harrick PDC-32G plasma cleaner was used to etch silicon substrates (3 cm×2 cm) following rinsing with methanol and deionized water and drying under a stream of dry nitrogen. Layer-by-layer thin films were deposited using an automated Carl Zeiss HMS Series Programmable Slide Stainer. Absorbances from growing films were measured using Fourier Transform Infrared Spectroscopy (FTIR) using a Nicolet Magna IR 550 Series II Spectrometer. Zinc selenide substrates used for transmission FTIR analysis were prepared using the same method employed for silicon substrates, Ellipsometric measurements for film thickness were conducted using a Gaertner Variable Angle Ellipsometer ([…], 70° incident angle) and Gaertner Ellipsometer Measurement Program (GEMP) Version 1.2 software interface. The release of radiolabeled polymers was quantified using a Tri-carb liquid scintillation counter (Model U2200). […] (PAH/PAA) films were thermally cross-linked by incubating films in a Yamoto DVS400 gravity convection oven at 215° C. for indicated time intervals.
Release Studies. For drug release experiments, radiolabeled LbL thin films were first constructed by alternately depositing polymer 1 and the indicated radiolabeled drug(s). Radiolabled deposition solutions containing ^3H-heparin were prepared by combining 1 mL of 50 μCi/mL ^3H-heparin (0.30 mCi/mg, Mn=12500) with 35 mL of 100 mM acetate buffer. Unlabeled heparin (Mn=12500) was added to bring the total concentration of heparin (unlabeled plus labeled) to 2 mg/mL (1.5-2 μCi/mL ^3H). […]

[1] = DS base layer, heparin surface layer, 50 (PDAC/SPS) non-degradable dividing layers
[2] = DS base layer, heparin surface layer, 50 (Poly1/SPS) degradable dividing layers
[3] = DS base layer, heparin surface layer, separated by a single cross-linked layer of (PAH/PAA)
[4] = DS base layer, heparin surface layer, without dividing layers
[5] = heparin base layer, DS surface layer, (PDAC/SPS)50 non-degradable dividing layers
[6] = heparin base layer, DS surface layer, (Poly1/SPS)20 degradable dividing layers
[7] = heparin base layer, DS surface layer, without dividing layers
[8] = polymer 1/DS base, single PAH/PAA bilayer cross-linked 20 min at 215° C., polymer 1/HEP surface

Substance: Heparin sodium salt
- release pattern [1]: simultaneous release
- release pattern [2]: simultaneous release
- release pattern [3]: sequential release
- release pattern [4]: simultaneous release
- release pattern [5]: simultaneous release
- release pattern [6]: simultaneous release
- release pattern [7]: simultaneous release
- effect of barrier layer on release of heparin (heparin-loaded films coated with a single layer of (PAH/PAA) cross-linked 45 min at 215° C. vs untreated films): does not significantly delay

Substance: Dextran sulfate sodium salt [DS]
- release pattern [1]: simultaneous release
- release pattern [2]: simultaneous release
- release pattern [3]: sequential release
- release pattern [4]: simultaneous release
- change in release rate (cross-linking times greater than 1.5 h at 215° C., or barriers with more than five cross-linked layers (data not shown)): one to two order of magnitude decreases
- release pattern [5]: simultaneous release
- release pattern [6]: simultaneous release
- release pattern [7]: simultaneous release
- release of underlying DS (multiple layers of PAH/PAA cross-linked longer than 1.5 h at 215° C., up to 45 days): no release of DS was observed
- average rate of DS release, slower than in corresponding films without covalently cross-linked barrier layers [8]: approximately 60%
- delay before release of underlying DS [8]: approximately 25 h
